Where a SMILES comes first, the peptide text is derived from it.
Columns and labels:
human Kv1.3 = settings: cited from earlier work; for IC50: human Kv1.3 channel blocking, patch-clamp, read-out: IC50, Kv1.x blocking (Kv1.3)
Text: Table 1 Summary of chimeric protein-binding prediction studies in the light of IC50 values | column: Kv1.x blocking / IC50 (nM) || Peptide toxins of venomous animal origin as lead molecules for optimization may offer an advantage over small molecules in terms of potentially greater affinity and specificity. These miniproteins are usually up to 50 amino acids in length and can adopt distinct conformation with secondary structural elements stabilized by several disulfide bonds ([9], [10], [11]). Due to their considerable surface area, miniproteins can form stable complexes with target proteins through extensive interaction surfaces ([12], [13]). The miniprotein Kv1.3 blocker drug candidate, Dalazatide—a synthetic derivative ... || Our initial investigation focused on assessing the relative binding affinities of various channel-blocking toxins to the T-only version of the KcsA-Kv1.3 chimera. Subsequently, we evaluated whether these affinities aligned with the toxins' blocking efficacy on native human Kv1.3 channels, as determined by patch-clamp assay.

KcsA-Kv1.1 T+F chimera = target: T1, KcsA-Kv1.1 T+F chimera (Streptomyces lividans, UniProt P0A334, R52A/G53E/A54E/P55A/G56E/A57S/Q58H/L59F/I60S/T61S/Y62I/R64D/L81M); assay: Phage-binding competition assay, KcsA-Kv1.1 T+F; parameters: species or system human Kv1.1 turret and filter in Streptomyces lividans KcsA; settings: for competition binding to KcsA-Kv1.1 T+F, in words: ShK-phage competition, native peptide, Fig. 8F (ligand-binding pattern); for Rank, T+F chimera (Kv1.1): rank by competition IC50 among ShK, KTX1, MTX
T1 sequence (P0A334 1-160 R52A/G53E/A54E/P55A/G56E/A57S/Q58H/L59F/I60S/T61S/Y62I/R64D/L81M): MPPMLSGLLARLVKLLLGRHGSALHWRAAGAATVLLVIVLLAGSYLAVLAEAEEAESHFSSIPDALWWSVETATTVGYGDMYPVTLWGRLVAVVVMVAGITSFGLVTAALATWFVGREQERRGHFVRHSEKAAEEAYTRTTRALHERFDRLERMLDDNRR
Experimental: Phage stock solutions were diluted to working concentration with phage resuspension buffer supplemented with 2 mM DDM. For protein immobilization, the following amounts were used in a final volume of 50 μl/well: wt KcsA, 0.1 μg; KcsA-Kv1.1 T-only, 0.005 μg; KcsA-Kv1.1 T+F, 0.02 μg; KcsA-Kv1.2 T-only, 0.01 μg; KcsA-Kv1.2 T+F, 0.1 μg; KcsA-Kv1.3 T-only, 0.01 μg; and KcsA-Kv1.3 T+F, 0.1 μg. Protein samples were diluted in 50 μl of storage buffer (20 mM Tris pH8.0, 300 mM KCl, 2 mM DDM) and were added to the designated wells of a Pierce Clear, 96-Well Nickel Coated Plate (15442, Thermo Fisher Scientific), then incubated for 1 h at room temperature on a horizontal shaker at 130 rpm. The plate was blocked for 1 h at room temperature with 180 μl/well TBS-BSA supplemented with 1 mM DDM. Following blocking, the wells were washed 4× with washing buffer (300 μl TBS-Tween, 0.1% v/v) using a Wellwash Versa microplate washer (Thermo Fisher Scientific); then 50 μl phage solution (in TBS-BSA-Tween, 0.1% v/v, 2 mM DDM) at determined phage concentration was added to the wells and incubated for 1 h at room temperature on a horizontal shaker. The plate was washed 4× with washing buffer, then 50 μl anti-M13 IgG HRP (MA5-36125, Invitrogen) diluted to 1:2500 in TBS-Tween (0.1% v/v) was added to the wells and incubated for 1 h at room temperature. The plate was washed again 4× with 300 μl/well washing buffer. Finally, 50 μl/well 1-Step Ultra TMB-ELISA solution (34028, Thermo Fisher Scientific) was added to the wells, and the developing signal was stopped with 50 μl 1M HCl after 5 to 10 min. The light absorbance signal was read at 450 nm with Byonoy absorbance 96 plate reader (Byonoy GmbH).
For protein immobilization, the following amounts were used in a final volume of 50 μl/well: KcsA-Kv1.1 T-only, 0.005 μg; KcsA-Kv1.1 T+F, 0.01 μg; KcsA-Kv1.2 T-only, 0.025 μg; KcsA-Kv1.2 T+F, 0.0125 μg; KcsA-Kv1.3 T-only, 0.01 μg; and KcsA-Kv1.3 T+F, 0.1 μg. Protein samples were diluted in storage buffer. Binding of given concentrations of relevant ligand-displaying phages quantified by light absorbance ([…]) were investigated in a similar manner as in phage ELISA-binding assay, while different concentrations of competing toxin test substances were applied simultaneously. The results were converted to percent inhibitions (percent displacement) of the indicator phage binding, and relative affinities of the tested toxins were assessed by plotting percent displacements against log concentrations and determining half maximal inhibitory concentrations (IC50) by sigmoidal curve fitting using “Sigmoidal dose-response (variable slope) with least squares method” algorithm in GraphPad Prism 8 using the following equation: Y=Bottom+Top−Bottom/1+10^(LogEC50−×)⋅HillSlope

SMILES	inhibition of Kv1.3, in words (human Kv1.3)	IC50 (human Kv1.3)	competition binding to KcsA-Kv1.1 T+F, in words (KcsA-Kv1.1 T+F chimera)	Rank, T+F chimera (Kv1.1) (KcsA-Kv1.1 T+F chimera)	competition binding to KcsA-Kv1.1 T+F, in words (KcsA-Kv1.1 T+F chimera; listed as MTX1)
CC[C@H](C)[C@@H]1NC(=O)CNC(=O)[C@H](Cc2ccccc2)NC(=O)[C@H](CCC(N)=O)NC(=O)[C@H](C)NC(=O)[C@H](CCCCN)NC(=O)[C@@H]2CSSC[C@@H](C(=O)N[C@@H](Cc3ccc(O)cc3)C(=O)N3CCC[C@H]3C(=O)N[C@@H](Cc3c[nH]cn3)C(=O)O)NC(=O)[C@H](CCCCN)NC(=O)[C@@H]3CSSC[C@H](NC(=O)[C@H](CCC(N)=O)NC(=O)[C@H](CCCCN)NC(=O)[C@@H]4CCCN4C(=O)[C@H](CO)NC(=O)[C@H]([C@@H](C)O)NC(=O)[C@@H](NC(=O)[C@H](CCCCN)NC(=O)[C@@H](NC(=O)[C@H](CC(=O)O)NC(=O)[C@@H](NC(=O)[C@@H](NC(=O)[C@@H](N)[C@@H](C)O)C(C)C)[C@@H](C)CC)C(C)C)CSSC[C@H](NC(=O)[C@H](CCCCN)NC(=O)[C@H](C)NC(=O)CNC(=O)[C@H](C)NC(=O)[C@H](CCCNC(=N)N)NC1=O)C(=O)N[C@@H](CCSC)C(=O)N[C@@H](CC(N)=O)C(=O)NCC(=O)N[C@@H](CCCCN)C(=O)N3)C(=O)N[C@@H](CC(C)C)C(=O)N1CCC[C@H]1C(=O)N1CCC[C@H]1C(=O)N2 [HgTx1, Hongotoxin-1] (HELM PEPTIDE1{T.V.I.D.V.K.C.T.S.P.K.Q.C.L.P.P.C.K.A.Q.F.G.I.R.A.G.A.K.C.M.N.G.K.C.K.C.Y.P.H}$PEPTIDE1,PEPTIDE1,7:R3-29:R3|PEPTIDE1,PEPTIDE1,13:R3-34:R3|PEPTIDE1,PEPTIDE1,17:R3-36:R3$$$V2.0; N-terminus and C-terminus assumed)	equivalent high potency	0.086 nM	–	–	–
CC[C@H](C)[C@H](NC(=O)[C@H](CCC(=O)O)NC(=O)[C@@H](NC(=O)CN)C(C)C)C(=O)N[C@@H](CC(N)=O)C(=O)N[C@H](C(=O)N[C@@H](CCCCN)C(=O)N[C@H]1CSSC[C@@H]2NC(=O)[C@H](CCCCN)NC(=O)CNC(=O)[C@H](Cc3ccccc3)NC(=O)[C@H](CCCNC(=N)N)NC(=O)[C@H](CCSC)NC(=O)CNC(=O)[C@H](C)NC(=O)[C@H](CC(=O)O)NC(=O)[C@H](CCCCN)NC(=O)[C@@H]3CSSC[C@@H](C(=O)N[C@H](C(=O)N4CCC[C@H]4C(=O)N[C@@H](CCCCN)C(=O)O)[C@@H](C)O)NC(=O)[C@H](Cc4c[nH]cn4)NC(=O)[C@H](CSSC[C@H](NC(=O)[C@H](CCC(N)=O)NC(=O)[C@@H]4CCCN4C(=O)[C@H](CO)NC(=O)CNC(=O)[C@H](CO)NC1=O)C(=O)N[C@@H](CC(C)C)C(=O)N[C@@H](CCCCN)C(=O)N1CCC[C@H]1C(=O)N3)NC(=O)[C@H](CCCCN)NC(=O)[C@H](CCCNC(=N)N)NC(=O)[C@H](CC(N)=O)NC(=O)[C@H](CCSC)NC2=O)C(C)C [KTX1, Kaliotoxin-1]	–	0.65 nM	ShK > KTX1 > MTX	2	–
CC[C@H](C)[C@@H]1NC(=O)[C@@H]2CSSC[C@H](NC(=O)[C@H](CO)NC(=O)[C@@H](N)C(C)C)C(=O)N[C@@H]([C@@H](C)O)C(=O)NCC(=O)N[C@@H](CO)C(=O)N[C@@H](CCCCN)C(=O)N[C@@H](CC(=O)O)C(=O)N[C@@H](CSSC[C@@H](C(=O)N[C@@H](CCCCN)C(=O)N[C@H]3CSSC[C@@H](C(N)=O)NC(=O)CNC(=O)[C@H](Cc4ccc(O)cc4)NC3=O)NC(=O)[C@H](CO)NC(=O)[C@H](CCCCN)NC(=O)[C@H](CC(N)=O)NC1=O)C(=O)N[C@@H](Cc1ccc(O)cc1)C(=O)N[C@@H](C)C(=O)N1CCC[C@H]1C(=O)N[C@H]1CSSC[C@H](NC(=O)CNC(=O)[C@H]([C@@H](C)O)NC(=O)[C@H](CCC(N)=O)NC(=O)[C@H](CCCCN)NC(=O)[C@H](CCCNC(=N)N)NC1=O)C(=O)N1CCC[C@H]1C(=O)N[C@@H](CC(N)=O)C(=O)N[C@@H](C)C(=O)N[C@@H](CCCCN)C(=O)N2 [MTX, Maurotoxin] (HELM PEPTIDE1{V.S.C.T.G.S.K.D.C.Y.A.P.C.R.K.Q.T.G.C.P.N.A.K.C.I.N.K.S.C.K.C.Y.G.C.[am]}$PEPTIDE1,PEPTIDE1,3:R3-24:R3|PEPTIDE1,PEPTIDE1,9:R3-29:R3|PEPTIDE1,PEPTIDE1,13:R3-19:R3|PEPTIDE1,PEPTIDE1,31:R3-34:R3$$$V2.0; N-terminus and C-terminus assumed)	–	–	ShK > KTX1 > MTX	3	negligible binding
CC[C@H](C)[C@@H]1NC(=O)[C@@H](NC(=O)[C@H](CO)NC(=O)[C@@H](N)CCCNC(=N)N)CSSC[C@@H](C(=O)O)NC(=O)[C@H]([C@@H](C)O)NC(=O)CNC(=O)[C@@H]2CSSC[C@@H]3NC(=O)[C@H](CCC(N)=O)NC(=O)[C@H](Cc4ccccc4)NC(=O)[C@H](C)NC(=O)[C@H]([C@@H](C)O)NC(=O)[C@H](CSSC[C@H](NC(=O)[C@H](Cc4ccccc4)NC(=O)[C@H](CO)NC(=O)[C@H](CC(C)C)NC(=O)[C@H](CCCNC(=N)N)NC(=O)[C@H](Cc4ccc(O)cc4)NC(=O)[C@H](CCCCN)NC(=O)[C@H](CCSC)NC(=O)[C@H](CO)NC(=O)[C@H](Cc4c[nH]cn4)NC(=O)[C@H](CCCCN)NC3=O)C(=O)N[C@@H](CCCNC(=N)N)C(=O)N[C@@H](CCCCN)C(=O)N[C@@H]([C@@H](C)O)C(=O)N2)NC(=O)[C@H](CCCNC(=N)N)NC(=O)[C@H](CO)NC(=O)[C@H](CCCCN)NC(=O)[C@@H]2CCCN2C(=O)[C@H]([C@@H](C)CC)NC(=O)[C@H]([C@@H](C)O)NC(=O)[C@H](CC(=O)O)NC1=O [ShK, Stichodactyla toxin]	–	–	ShK > KTX1 > MTX	1	–
CC[C@H](C)[C@H](NC(=O)[C@H](C)NC(=O)[C@H](C)NC(=O)[C@H](C)N)C(=O)N[C@@H](CO)C(=O)N[C@H]1CSSC[C@@H]2NC(=O)[C@H](CCCCN)NC(=O)CNC(=O)[C@H](CC(N)=O)NC(=O)[C@H](CCCCN)NC(=O)[C@@H]3CSSC[C@@H](C(N)=O)NC(=O)[C@H](Cc4ccc(O)cc4)NC(=O)[C@H](Cc4ccc(O)cc4)NC(=O)[C@@H]4CSSC[C@H](NC(=O)[C@H](CCCCN)NC(=O)[C@@H]5CCCN5C(=O)[C@@H]5CCCN5C(=O)[C@H](CSSC[C@H](NC(=O)[C@H](CCCCN)NC(=O)[C@H](CCCNC(=N)N)NC(=O)[C@H](CC(N)=O)NC(=O)[C@H](CCSC)NC2=O)C(=O)N[C@@H](CCCCN)C(=O)N4)NC(=O)[C@H](CCC(=O)O)NC(=O)[C@@H]2CCCN2C(=O)[C@H](CO)NC(=O)CNC(=O)[C@H](C(C)C)NC1=O)C(=O)N[C@@H](CCCNC(=N)N)C(=O)N[C@@H](C)C(=O)N[C@@H](CCC(N)=O)C(=O)NCC(=O)N3 [Vm24, Vm24 toxin]	–	0.003 nM	–	–	–

— publication PMC11002876, “KcsA-Kv1.x chimeras with complete ligand-binding sites provide improved predictivity for screening selective Kv1.x blockers” (The Journal of Biological Chemistry, 2024)
